Data on four molecules can be found in US11192891B2, “Diazaspiro ROCK inhibitors” (BRISTOL-MYERS SQUIBB COMPANY, priority 2017, dated 2021).

For assay [1], the system named is IL-1 beta-induced coronary stenosis. To be noted: long term treatment, porcine model; cited from earlier work.
In a further assay the test system is rat stroke model. The following applies: cited from earlier work.
The next assay concerns Dahl salt-sensitive rats. The following applies: cited from earlier work.
For a further assay, the system named is neointimal formation. The following applies: rats; cited from earlier work.
In assay [2] the test system is rat models of hypertension. To be noted: cited from earlier work.
A further assay has as its target ROCK2 (Homo sapiens, UniProt O75116). The experiment in a line: ROCK kinase inhibition assay, FITC peptide substrate, LABCHIP 3000 readout. The format is biochemical. The following applies: 5 μM ATP, 1.5 μM peptide substrate. The procedure, abridged: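 Tested across a concentration range, with percent inhibition of kinase activity derived per concentration. Peptide phosphorylation, initiated by adding the Rho kinase variant (final DMSO <2%), was quenched with EDTA and substrate/product resolved by mobility shift.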

In general, IC50 refers to the concentration at which inhibition is half-maximal. A high value points to lower potency.

Sequence of ROCK2 (O75116 whole entry, species assumed): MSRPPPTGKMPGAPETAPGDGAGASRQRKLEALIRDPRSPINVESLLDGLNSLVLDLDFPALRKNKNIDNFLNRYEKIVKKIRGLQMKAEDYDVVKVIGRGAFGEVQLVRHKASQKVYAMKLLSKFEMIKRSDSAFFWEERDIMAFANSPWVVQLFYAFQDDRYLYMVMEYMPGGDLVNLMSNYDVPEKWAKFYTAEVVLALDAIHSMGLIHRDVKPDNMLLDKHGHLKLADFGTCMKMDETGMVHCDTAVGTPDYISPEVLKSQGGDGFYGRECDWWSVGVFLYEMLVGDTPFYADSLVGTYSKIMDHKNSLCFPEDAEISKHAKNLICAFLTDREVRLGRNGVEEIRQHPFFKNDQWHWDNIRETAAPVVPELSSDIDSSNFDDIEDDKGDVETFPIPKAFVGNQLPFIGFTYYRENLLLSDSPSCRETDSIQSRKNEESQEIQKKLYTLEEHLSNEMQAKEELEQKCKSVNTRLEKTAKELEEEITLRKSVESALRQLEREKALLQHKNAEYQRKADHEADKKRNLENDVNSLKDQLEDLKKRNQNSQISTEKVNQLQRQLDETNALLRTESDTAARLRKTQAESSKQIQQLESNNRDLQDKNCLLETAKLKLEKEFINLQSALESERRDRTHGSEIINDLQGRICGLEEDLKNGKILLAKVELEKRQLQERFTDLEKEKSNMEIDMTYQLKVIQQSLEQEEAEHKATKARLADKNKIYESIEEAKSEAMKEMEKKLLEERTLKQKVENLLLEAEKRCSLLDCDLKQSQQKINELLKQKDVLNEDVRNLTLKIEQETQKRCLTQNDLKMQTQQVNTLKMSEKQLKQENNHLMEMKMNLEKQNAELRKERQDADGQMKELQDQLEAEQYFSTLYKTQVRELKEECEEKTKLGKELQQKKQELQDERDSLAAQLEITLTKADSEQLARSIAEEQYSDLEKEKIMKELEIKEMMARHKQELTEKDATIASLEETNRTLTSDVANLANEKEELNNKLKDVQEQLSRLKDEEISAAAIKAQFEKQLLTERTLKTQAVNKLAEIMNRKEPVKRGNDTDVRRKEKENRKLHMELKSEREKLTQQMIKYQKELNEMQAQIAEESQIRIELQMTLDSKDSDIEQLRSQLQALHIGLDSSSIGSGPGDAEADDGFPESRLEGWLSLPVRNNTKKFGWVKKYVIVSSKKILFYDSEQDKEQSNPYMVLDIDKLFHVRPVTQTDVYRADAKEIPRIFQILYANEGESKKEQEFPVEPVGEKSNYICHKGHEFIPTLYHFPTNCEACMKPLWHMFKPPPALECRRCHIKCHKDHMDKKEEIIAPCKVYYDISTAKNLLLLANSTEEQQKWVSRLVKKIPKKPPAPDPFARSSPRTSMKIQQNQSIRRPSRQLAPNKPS

With `O=S(=O)(c1cccc2cnccc12)N1CCCNCC1` [fasudil], in assay [1], the coronary constrictive remodeling result is “promote a regression of coronary constrictive remodeling” and the coronary stenosis result was “progressively reduce coronary stenosis”. Also, in the assay with rat stroke model, the “infarct size and neurologic deficit” value was “reduce both the infarct size and neurologic deficit”.

As to `C[C@@H](N)[C@H]1CC[C@H](C(=O)Nc2ccncc2)CC1` [Example Y-27632], in the assay with Dahl salt-sensitive rats, the “ventricular hypertrophy, fibrosis and function” value is “improve ventricular hypertrophy, fibrosis and function”. Moreover, the neointimal formation result with neointimal formation was “inhibited neointimal formation”. In assay [2] (control rats), the “effect on blood pressure in control rats” value is given as “only a minor effect on blood pressure”. The “effect on blood pressure in hypertensive rats” value in assay [2] (spontaneously hypertensive, renal hypertensive and deoxycortisone acetate salt hypertensive rat models) is reported as “significantly decrease blood pressure”.

For the molecule `COc1cc(N2CCC3(CCN(C(=O)c4ccco4)CC3)C2=O)ccc1-c1cn[nH]c1` [Example 63, 8-(furan-2-carbonyl)-2-[3-methoxy-4-(1H-pyrazol-4-yl)phenyl]-2,8-diazaspiro[4.5]decan-1-one], at ROCK2, the midpoint of inhibition, the IC50, lay at 1690 nM. This counts as single-digit micromolar.

With `CN1CCN(c2ccc(C(=O)N3CCC4(CC3)CCN(c3cccc(-c5cn[nH]c5)c3)C4=O)cc2)CC1` [Example 48, 8-[4-(4-methylpiperazin-1-yl)benzoyl]-2-[3-(1H-pyrazol-4-yl)phenyl]-2,8-diazaspiro[4.5]decan-1-one], the IC50 against ROCK2 is 1100 nM. Compared with the last molecule, the IC50 is about 1.5-fold lower.
